Measured values as given in ChEMBL document CHEMBL5126505, “Adenosine receptor antagonists: Recent advances and therapeutic perspective” (Eur J Med Chem, 2022).
Converted amounts (≈) assume the structure as drawn.

Experiments:
Adenosine receptor A2a [1] = target: T1, Adenosine receptor A2a (Homo sapiens, UniProt P29274)
Adenosine receptor A3 [2] = target: T2, Adenosine receptor A3 (Homo sapiens, UniProt P0DMS8)
T2 sequence (P0DMS8 whole entry): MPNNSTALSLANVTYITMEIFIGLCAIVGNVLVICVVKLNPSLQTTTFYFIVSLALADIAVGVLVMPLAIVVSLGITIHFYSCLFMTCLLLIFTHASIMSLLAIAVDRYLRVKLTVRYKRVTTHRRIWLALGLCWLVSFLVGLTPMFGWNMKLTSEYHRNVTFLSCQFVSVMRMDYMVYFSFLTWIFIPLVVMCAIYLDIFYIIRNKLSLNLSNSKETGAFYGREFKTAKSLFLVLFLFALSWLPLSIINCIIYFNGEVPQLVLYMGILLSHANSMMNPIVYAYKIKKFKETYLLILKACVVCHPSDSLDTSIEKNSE
Description: Binding affinity to human adenosine A3A receptor

Adenosine receptor A3 [3] = target: T2, Adenosine receptor A3; remark: listed apart in the source
Description: Binding affinity to human adenosine A3A receptor measured by radioligand-based affinity assay

in vivo [4] = settings: plasma
Description: Cmax in plasma (unknown origin)

Adenosine receptor A1 [5] = target: T3, Adenosine receptor A1 (Homo sapiens, UniProt P30542)
T3 sequence (P30542 whole entry): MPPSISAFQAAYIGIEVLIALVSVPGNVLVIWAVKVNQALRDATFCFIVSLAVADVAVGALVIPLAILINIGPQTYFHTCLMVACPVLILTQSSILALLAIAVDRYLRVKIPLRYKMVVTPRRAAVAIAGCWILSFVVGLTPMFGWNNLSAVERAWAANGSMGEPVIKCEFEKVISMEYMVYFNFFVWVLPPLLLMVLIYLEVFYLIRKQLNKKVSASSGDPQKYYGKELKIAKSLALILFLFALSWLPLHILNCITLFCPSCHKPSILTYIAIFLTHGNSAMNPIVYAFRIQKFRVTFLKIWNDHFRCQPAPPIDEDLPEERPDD
Description: Binding affinity to human adenosine A1 receptor

Adenosine receptor A2a [6] = target: T1, Adenosine receptor A2a; remark: listed apart in the source
Adenosine receptor A2a [7] = target: T1, Adenosine receptor A2a; remark: listed apart in the source
Description: Antagonist activity at human adenosine A2A receptor expressed in CHO cells assessed as inhibition of NECA-induced cAMP production measured by scintillation counter assay

Adenosine receptor A3 [8] = target: T2, Adenosine receptor A3; assay: biochemical
Description: Displacement of [3H]HEMADO from human adenosine A3 receptor expressed in CHO cells measured by radioligand competition assay

Adenosine receptor A3 [9] = target: T2, Adenosine receptor A3; assay: biochemical; remark: listed apart in the source
Description: Displacement of [3H]NECA from human adenosine A3 receptor expressed in HeLa cells measured by scintillation counting assay

Adenosine receptor A3 [10] = target: T2, Adenosine receptor A3; remark: listed apart in the source
Description: Antagonist activity at human adenosine A3 receptor expressed in CHO cells assessed as cAMP level measured by enzyme immunoassay

physchem [11] = settings: phosphate buffered saline
Description: Solubility of the compound in phosphate buffered saline

physchem [12] = settings: water
Description: Solubility of the compound in water

physchem [13] = settings: simulated gastric fluid
Description: Solubility of the compound in simulated gastric fluid

physchem [14] = settings: simulated intestinal fluid
Description: Solubility of the compound in simulated intestinal fluid

[15] = target: T4, Amine oxidase [flavin-containing] B (Homo sapiens, UniProt P27338)
T4 sequence (P27338 whole entry): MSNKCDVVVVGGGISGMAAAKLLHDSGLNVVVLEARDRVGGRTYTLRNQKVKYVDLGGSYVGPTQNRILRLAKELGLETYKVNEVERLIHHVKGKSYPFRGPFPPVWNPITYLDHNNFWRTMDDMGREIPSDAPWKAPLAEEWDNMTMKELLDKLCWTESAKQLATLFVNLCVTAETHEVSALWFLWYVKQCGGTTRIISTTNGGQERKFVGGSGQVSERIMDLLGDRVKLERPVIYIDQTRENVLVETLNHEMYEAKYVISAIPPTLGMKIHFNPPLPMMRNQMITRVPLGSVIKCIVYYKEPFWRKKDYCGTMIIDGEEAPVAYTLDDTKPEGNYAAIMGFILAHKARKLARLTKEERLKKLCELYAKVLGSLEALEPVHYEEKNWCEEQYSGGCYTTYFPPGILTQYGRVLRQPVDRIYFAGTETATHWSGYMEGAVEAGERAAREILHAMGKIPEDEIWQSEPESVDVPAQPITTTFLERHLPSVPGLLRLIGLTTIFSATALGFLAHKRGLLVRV
Description: Inhibition of MAO-B (unknown origin)

Adenosine receptor A2a [16] = target: T1, Adenosine receptor A2a; remark: listed apart in the source
Description: Antagonist activity at adenosine A2A receptor (unknown origin)

Adenosine receptor A2a [17] = target: T1, Adenosine receptor A2a; assay: Antagonist activity at human adenosine A2A receptor expressed in CHO cells assessed as inhibition of NECA-induced cAMP production; format: functional, cell-based
Adenosine receptor A1 [18] = target: T3, Adenosine receptor A1; remark: listed apart in the source
Description: Antagonist activity at human adenosine A1A receptor

in vivo [19] = settings: male, Wistar, rat
Description: Half-life in male Wistar rat

Adenosine receptor A2b [20] = target: T5, Adenosine receptor A2b (Homo sapiens, UniProt P29275)
T5 sequence (P29275 whole entry): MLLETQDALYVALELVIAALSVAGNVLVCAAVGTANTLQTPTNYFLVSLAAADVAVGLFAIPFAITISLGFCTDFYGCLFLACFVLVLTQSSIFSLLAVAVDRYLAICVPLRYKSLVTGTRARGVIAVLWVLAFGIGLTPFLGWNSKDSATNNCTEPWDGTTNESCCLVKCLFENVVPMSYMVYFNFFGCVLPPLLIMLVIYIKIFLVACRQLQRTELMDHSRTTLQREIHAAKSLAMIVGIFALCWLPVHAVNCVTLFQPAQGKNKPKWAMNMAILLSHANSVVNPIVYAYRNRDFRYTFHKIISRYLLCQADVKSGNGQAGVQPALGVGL
Description: Binding affinity to human adenosine A2B receptor

Adenosine receptor A2b [21] = target: T5, Adenosine receptor A2b; remark: listed apart in the source
Description: Antagonist activity at human adenosine A2B receptor expressed in mouse NIH/3T3 cells assessed as inhibition of NECA-induced IL-6 release

Adenosine receptor A2b [22] = target: T5, Adenosine receptor A2b; assay: Antagonist activity at human adenosine A2B receptor expressed in HEK293 cells assessed as inhibition of cAMP production; format: functional, cell-based
in vitro [23] = settings: human, liver microsomes
in vitro [24] = settings: human, Caco-2
Description: Apparent permeability in human Caco-2 cells

Adenosine receptor A2a [25] = target: T1, Adenosine receptor A2a; assay: Displacement of [3H]NECA from human adenosine A2A receptor expressed in CHO cells measured by radioligand competition assay; format: cell-based
Adenosine receptor A1 [26] = target: T3, Adenosine receptor A1; assay: Displacement of [3H]CCPA from human adenosine […] receptor expressed in CHO cells measured by radioligand competition assay; format: cell-based
Adenosine receptor A2a [27] = target: T1, Adenosine receptor A2a; assay: Binding affinity to human adenosine A2A receptor measured by radioligand-based affinity assay
Adenosine receptor A2a [28] = target: T1, Adenosine receptor A2a; remark: listed apart in the source
Description: Displacement of [3H]-ZM241385 from human adenosine A2A receptor transfected in CHO cell membranes incubated for 60 mins and measured by scintillation counting assay

Adenosine receptor A1 [29] = target: T3, Adenosine receptor A1; assay: biochemical
Description: Displacement of [3H]DPCPX from human adenosine A1 receptor expressed in CHO cells incubated for 120 mins and measured by scintillation counting assay

in vitro [30] = settings: rat, liver microsomes
Description: Stability in rat liver microsomes incubating after 60 mins

Rattus norvegicus [31] = species on record: Rattus norvegicus; assay: animal or person; settings: po
Description: Antiparkinson's activity in L-DOPA induced dyskinesia rat model assessed as reduction in contralateral rotations administered orally

Adenosine receptor A2a [32] = target: T1, Adenosine receptor A2a; assay: biochemical
Description: Displacement of [3H]ZM-241385 from human adenosine A2A receptor expressed in HEK293 cells incubated for 60 mins and measured by scintillation counting assay

in vivo [33] = settings: male, Wistar, rat, iv, 3 mg/kg
Description: Half-life in male Wistar rat at 3 mg/kg, iv

Rattus norvegicus [34] = species on record: Rattus norvegicus; assay: animal or person; settings: po, 4 h
Description: Reversal of haloperidol-induced catalepsy in rat administered orally and measured after 4 hrs

Adenosine receptor A1 [35] = target: T3, Adenosine receptor A1; assay: biochemical; remark: listed apart in the source
Description: Binding affinity to human adenosine A1A receptor expressed in CHO cells measured by radioligand binding assay

Adenosine receptor A2a [36] = target: T1, Adenosine receptor A2a; assay: biochemical; remark: listed apart in the source
Description: Binding affinity to human adenosine A2A receptor expressed in CHO cells measured by radioligand binding assay

Adenosine receptor A3 [37] = target: T2, Adenosine receptor A3; assay: biochemical; remark: listed apart in the source
Description: Binding affinity to human adenosine A3A receptor expressed in CHO cells measured by radioligand binding assay

Aorta = assay: tissue or blood; settings: Rattus norvegicus
Description: Induction of vasorelaxant activity in rat aortic rings

Adenosine receptor A2a [38] = target: T1, Adenosine receptor A2a; assay: Binding affinity to human adenosine A2A receptor expressed in HEK293 cells measured by radioligand based assay; format: cell-based

T1 sequence (P29274 whole entry): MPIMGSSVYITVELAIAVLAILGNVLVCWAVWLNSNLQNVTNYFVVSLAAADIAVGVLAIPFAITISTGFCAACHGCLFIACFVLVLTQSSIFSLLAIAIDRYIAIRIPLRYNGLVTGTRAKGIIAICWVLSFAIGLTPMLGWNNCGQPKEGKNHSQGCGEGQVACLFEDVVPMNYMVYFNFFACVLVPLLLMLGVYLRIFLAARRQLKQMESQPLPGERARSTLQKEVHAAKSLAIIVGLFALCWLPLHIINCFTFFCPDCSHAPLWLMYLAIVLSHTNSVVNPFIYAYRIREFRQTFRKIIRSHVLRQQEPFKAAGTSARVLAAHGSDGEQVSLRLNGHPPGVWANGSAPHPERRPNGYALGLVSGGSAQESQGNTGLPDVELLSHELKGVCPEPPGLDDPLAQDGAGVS

CCN1CCCC(Nc2cc(C)nc(NC(=N)Nc3ccc(Cl)c(Cl)c3)n2)C1 (centres undefined)
IC50 (Adenosine receptor A2a [1]): 546 nM

COc1ccc(OC)c(-c2cc(NC(C)=O)nc(-c3cc(OC)ccc3OC)n2)c1
Ki (Adenosine receptor A3 [2]): 7 nM

COc1ccc(-c2cc(NC(C)=O)nc(-c3ccc(OC)c(OC)c3)n2)cc1OC
Ki (Adenosine receptor A3 [2]): 7 nM

Cc1nc(NC(=O)c2ccccc2)c2nn(-c3ccccc3)cc2n1
Ki (Adenosine receptor A3 [3]): 24 nM

Cc1ccc(-c2nc(N)c3cc(Cc4ccccc4)sc3n2)o1
Cmax (in vivo [4]): 5 µM
Ki (Adenosine receptor A1 [5]): 11.1 nM
Ki (Adenosine receptor A2a [6]): 298 nM

CC(C)n1cc2c(Cl)nc(N(C(=O)c3ccccc3)C(=O)c3ccccc3)nc2n1
Ki (Adenosine receptor A3 [3]): 900 nM

Nc1nc(CCCc2ccccc2)nc2cn(-c3ccccc3)nc12
Ki (Adenosine receptor A2a [7]): 423 nM

CCOC(=O)c1c(NC(=O)c2sc(Nc3ccc(OC)cc3)nc2-c2ccc(C)cc2)sc2c1CCCC2
Ki (Adenosine receptor A3 [8]): 5200 nM

CCn1nnc([C@H]2O[C@@H](n3cnc4c(N)nc(NC(C)Cc5ccc(OC)cc5)nc43)[C@H](O)[C@@H]2O)n1 (some centres undefined)
Ki (Adenosine receptor A3 [9]): 13 nM
Ki (Adenosine receptor A3 [10]): 6 nM

OC[C@@H]1CCCN1c1ncnc2sc(Nc3cccc(Br)c3)nc12
solubility (physchem [11]): 4800 µg/mL (≈ 11.8 mM)
solubility (physchem [12]): 4300 µg/mL (≈ 10.6 mM)
solubility (physchem [13]): 3500 µg/mL (≈ 8.61 mM)
solubility (physchem [14]): 3500 µg/mL (≈ 8.61 mM)

Cn1c(=O)c2c(nc(/C=C/c3cccc(Br)c3)n2C)n(C)c1=O
Ki (Adenosine receptor A2a [6]): 28.4 nM
IC50 [15]: 112 nM

Oc1ccc(-c2cnc(N[C@H]3CC[C@H](O)CC3)nc2-c2ccccc2)cc1Cl
Ki (Adenosine receptor A2a [1]): 7.7 nM

CCCn1c(=O)[nH]c2nc(-c3cnn(Cc4cccc(C(F)(F)F)c4)c3)[nH]c2c1=O
Ki (Adenosine receptor A2a [16]): 6 nM

CCOc1ccc(-c2cn3c(=O)n(-c4ccccc4)nc3c(N)n2)cc1
IC50 (Adenosine receptor A2a [17]): > 30000 nM

CCCn1c(Oc2ccc(F)c(F)c2)nc2nc(C3CCCC3)[nH]c2c1=O
Ki (Adenosine receptor A1 [18]): 2 nM
half-life (in vivo [19]): 2 h

CCCn1c(=O)c2[nH]c(-c3cnn(CC#Cc4cccc(OC(F)(F)F)c4)c3)nc2n(CCC)c1=O
Ki (Adenosine receptor A2b [20]): 13 nM
IC50 (Adenosine receptor A2b [21]): 107 nM
Ki (Adenosine receptor A2b [22]): 8 nM

COc1ccc2oc(=O)c(C(=O)Nc3cccc(O)c3)cc2c1
Ki (Adenosine receptor A1 [5]): 41000 nM
Ki (Adenosine receptor A3 [2]): 22000 nM

CCCn1c(Oc2cccc(C(F)(F)F)c2)nc2nc(C3CCCC3)[nH]c2c1=O
Ki (Adenosine receptor A1 [18]): 2 nM

Nc1cc(-c2ccco2)c2oc(-c3ccco3)nc2c1
half-life at 0.1 µM (in vitro [23]): > 0.683 h
Papp (in vitro [24]): 77 ×10⁻⁶ cm/s

Cc1cccc(NC(=O)c2cc3ccccc3oc2=O)c1
Ki (Adenosine receptor A3 [2]): 2400 nM

CC1=C(C(=O)OC(C)C(F)(F)F)C(c2ccco2)n2c(nc3ccccc32)N1 (centres undefined)
Ki (Adenosine receptor A2b [20]): 29.1 nM

O=c1oc2c(O)cccc2cc1-c1ccc(Br)cc1
Ki (Adenosine receptor A2a [25]): 12100 nM
Ki (Adenosine receptor A1 [26]): 2400 nM

COc1ccc(C(=O)Nc2nc(-c3ccccc3)c(C(=O)c3ccc(C)cc3)s2)cc1
Ki (Adenosine receptor A3 [3]): 4.63 nM

CCCn1c(=O)[nH]c2nc(-c3ccc(S(=O)(=O)N4CCN(c5ccc(Cl)cc5)CC4)cc3)[nH]c2c1=O
Ki (Adenosine receptor A2a [16]): 0.553 nM

COc1ccc(-c2cn3c(=O)n(-c4ccc([N+](=O)[O-])cc4)nc3c(N)n2)cc1
Ki (Adenosine receptor A2a [27]): 7.2 nM
IC50 (Adenosine receptor A2a [17]): > 30000 nM

COc1ccc(CCNc2nc(N)c3nn(-c4ccccc4)cc3n2)cc1OC
Ki (Adenosine receptor A2a [28]): 150 nM

Nc1nc(NCCc2ccccc2)nc2cn(-c3ccccc3)nc12
Ki (Adenosine receptor A1 [29]): 11 nM

CCCN1CSc2c1ncn(NC(N)=O)c2=N
remaining at 1 h (in vitro [30]): 86%

COCCOc1ccc(N2CCN(CCn3c(=O)n(C)c4c3nc(N)n3nc(-c5nccs5)nc43)CC2)c(F)c1
ED50 (Rattus norvegicus [31]): 1.2 mg/kg
Ki (Adenosine receptor A2a [32]): 0.4 nM
half-life (in vivo [33]): 1 h
ED50 (Rattus norvegicus [34]): 4.49 mg/kg

CCn1c(-c2ccco2)nc2c(N)cc(OCCc3ccccc3)cc21
Ki (Adenosine receptor A1 [35]): 2.2 nM

N=c1nc(N)c2c(C(F)(F)F)cc(-c3ccccc3)nc2[nH]1
Ki (Adenosine receptor A2a [36]): 3590 nM
Ki (Adenosine receptor A1 [35]): 620 nM
Ki (Adenosine receptor A3 [37]): 420 nM

CC1=C(C)C2C(=O)NC(NC(=O)c3ccccc3)=NC2S1 (centres undefined)
Ki (Adenosine receptor A2a [6]): 650 nM
Ki (Adenosine receptor A3 [2]): 124 nM

CCn1c(-c2ccco2)nc2c(N)cc(NCCc3ccccc3)cc21
IC50 (Aorta): 136 nM
Ki (Adenosine receptor A1 [35]): 3.8 nM

Nc1nc(NCc2ccccc2)nc2cn(-c3ccccc3)nc12
Ki (Adenosine receptor A1 [29]): 125 nM
Ki (Adenosine receptor A2a [28]): 25 nM

O=c1[nH]c(=O)c2c(C(F)(F)F)cc(-c3ccccc3)nc2[nH]1
Ki (Adenosine receptor A2a [36]): 670 nM
Ki (Adenosine receptor A1 [35]): 170 nM
Ki (Adenosine receptor A3 [37]): 680 nM

CCn1c(Br)nc2c(NCCc3ccccc3)cc(N)cc21
Ki (Adenosine receptor A2a [36]): 266 nM

Nc1nc(NCCc2ccc(O)cc2)nc(Nc2nc(-c3ccc(F)cc3)cs2)n1
Ki (Adenosine receptor A2a [38]): 1.5 nM

CCOC(=O)c1nc(NC(=O)c2ccc(C(F)(F)F)cc2)nc2nn(C(C)(C)C)cc12
Ki (Adenosine receptor A3 [3]): 1300 nM

CCNC(=O)[C@H]1O[C@@H](n2cnc3c(N)nc(NCCc4ccc(CCC(=O)O)cc4)nc32)[C@H](O)[C@@H]1O [CGS-21680]
IC50 (Aorta): 589 nM

Cc1c(C#N)cccc1-c1cc(-c2cn(Cc3cccc(C(C)(C)O)n3)nn2)nc(N)n1 [ETRUMADENANT]
Ki (Adenosine receptor A2a [16]): 1.5 nM
